1 substance from US20090171105A1 (priority 2006, published 2009) can be followed below.

In test [1] the test system is lymphocytic leukemia P-388. As to the kind of experiment: antitumor activity on experimental tumor strains. Format: in vivo. The conditions noted are these: intraperitoneal and intratumoral introduction, MTD.
Test [2] has as its system mamma adenocarcinoma Ca-755. The experiment in a line: antitumor activity on experimental tumor strains. Format: in vivo. The conditions noted are these: intraperitoneal and intratumoral introduction, MTD.
Another test concerns lymphoid leukemia L-1210. The experiment in a line: antitumor activity on experimental tumor strains. Format: in vivo. As to conditions: intraperitoneal and intratumoral introduction, MTD.
Test [3] has as its system interweave tumors, resistant to prospidine, rubomicine and sarcolyzine. The experiment in a line: efficiency on drug-resistant interweave tumors. The class given is in vivo.
Another test relates to connective tissue. As to the kind of experiment: oxidation-reduction processes and metabolism in connective tissue.
Test [4] has as its system T-cellular part of immunity. The experiment in a line: immunomodulating activity.
The target of test [5] is (Homo sapiens, UniProt P49354+P49356). The experiment in a line: inhibition of RAS-oncoprotein farnesylation. The class given is biochemical.
A further test deals with Ehrlich's solid tumor. The experiment in a line: antitumor activity on experimental tumor strains. Format: in vivo. The conditions noted are these: intraperitoneal and intratumoral introduction, MTD.
For a further test, the system named is tumor cells. The experiment in a line: ATP content and apoptosis of tumor cells. Format: cell-based.
The next test concerns sarcoma 37. As to the kind of experiment: antitumor activity on experimental tumor strains. The class given is in vivo. As to conditions: intraperitoneal and intratumoral introduction, MTD.
A further test relates to lung carcinoma. The experiment in a line: antitumor activity on experimental tumor strains. Format: in vivo. As to conditions: intraperitoneal and intratumoral introduction, MTD.
The next test concerns RAS-genes. As to the kind of experiment: expression of RAS-genes. Format: cell-based.
A further test deals with Walker carcinosarcoma. As to the kind of experiment: antitumor activity on experimental tumor strains. As to conditions: intraperitoneal and intratumoral introduction, MTD. The class given is in vivo.
Test [6] deals with alveolar mucous cancer of liver PC-1. As to the kind of experiment: antitumor activity on experimental tumor strains. Format: in vivo. As to conditions: alveolar mucous cancer of liver PC-1 of rats; intraperitoneal and intratumoral introduction, MTD.
A further test has as its system sarcoma M-I. The experiment in a line: antitumor activity on experimental tumor strains. Format: in vivo. The conditions noted are these: intraperitoneal and intratumoral introduction, MTD.

Sequence of (Homo sapiens, UniProt P49354+P49356) (P49356 whole entry, one chain of several): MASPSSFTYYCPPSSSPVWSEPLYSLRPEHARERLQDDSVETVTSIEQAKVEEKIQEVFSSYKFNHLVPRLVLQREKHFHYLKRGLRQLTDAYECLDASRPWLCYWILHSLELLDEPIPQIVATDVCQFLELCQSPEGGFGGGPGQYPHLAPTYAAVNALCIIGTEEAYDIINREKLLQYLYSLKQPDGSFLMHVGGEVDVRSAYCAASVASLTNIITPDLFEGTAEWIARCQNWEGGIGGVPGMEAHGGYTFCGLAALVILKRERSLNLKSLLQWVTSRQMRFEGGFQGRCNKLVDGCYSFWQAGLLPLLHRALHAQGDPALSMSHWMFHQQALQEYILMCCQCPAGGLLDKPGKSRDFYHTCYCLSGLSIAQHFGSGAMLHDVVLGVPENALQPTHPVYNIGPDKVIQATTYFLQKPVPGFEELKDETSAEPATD

Regarding “1(10)β-epoxy-13-dimethylamino-5,7α,6,11β(H)-guaia-3(4)-en-6,12-olide hydrochloride [Arglabin]”, the “sensitivity of tumor strain” value (in [1]; in [2]; with lymphoid leukemia L-1210; in the test with Ehrlich's solid tumor; with sarcoma 37; with lung carcinoma) was “sensitive” in each case. Moreover, the “sensitivity of tumor strain” value (in the test on Walker carcinosarcoma; in [6]; in the test on sarcoma M-I) was “sensitive” throughout. In addition, in test [3], the “efficiency in relation to resistant interweave tumors” value is given as “shows efficiency”. Moreover, in the test with connective tissue, the “oxidation-reduction processes and metabolism in a connective tissue” value was “has ability to optimize oxidation-reduction processes and a metabolism in a connective tissue”. Moreover, the “correction of immunodepressive effect of cytostatic” value in test [4] is “has a property to correct immunodepressive effect of cytostatic cells”. Moreover, the immunomodulating activity result in [4] (depends on dose) is recorded as “shows primary influence on the T-cellular part of immunity”. Further, the “inhibition of RAS-oncoproteins pharnesilis” value in [5] is reported as “competitive inhibitor”. The ATP content entry in the test with tumor cells was “reduces”. Further, the tumor cells apoptosis result with tumor cells is given as “invokes tumor cells apoptosis”. Besides, the “expression of RAS-genes” value with RAS-genes is “reduces”.
